According to patent US20050032160A1, “Cell-based therapies for diabetes mellitus and other glucose intolerant states” (priority 2003, published 2005):
Entries after “also recorded” stand apart in the source; their conditions may differ.

What was measured:
β-cell = conditions: non-metabolizable analogs of glucose; cited from earlier work
[1] = system: glycerol kinase overexpressing 832/13 cells; assay: Insulin secretion in glycerol kinase overexpressing 832/13 cells; format: cell-based, rat; conditions: glucose versus glycerol
Excerpt: (§1) FIG. 9 depicts the effect of glycerol kinase overexpression in 832/13 cells on insulin excretion, lactate output and pyruvate cycling.
(§2) In contrast, pyruvate cycling and lactate output are higher in response to glycerol than to glucose.

[2] = system: glycerol kinase overexpressing 832/13 cells; assay: Pyruvate cycling (13C studies) in glycerol kinase overexpressing 832/13 cells; format: cell-based, rat; conditions: glycerol versus glucose
Excerpt: as §1, §2

[3] = system: glycerol kinase overexpressing 832/13 cells; assay: Lactate output in glycerol kinase overexpressing 832/13 cells; format: cell-based, rat; conditions: glycerol versus glucose
Excerpt: as §1, §2

832/13 cells = assay: Insulin secretion assay (radioimmunoassay) in 832/13 cells; format: cell-based, rat; conditions: relative to glucose or pyruvate
Method: The cell line 832/13 was created from INS-1 insulinoma β-cells as described earlier (Hohmeier et al. (2000) Diabetes 49:424-430). Cells were cultured in RPMI-1640 medium containing 11 mM glucose supplemented with 10% fetal bovine serum, 10 mM HEPES, 2 mM glutamine, 1 mM sodium pyruvate and […] β-mercaptoethanol. Media was routinely changed every second day. 832/13 cells were split to a cell density of 20-30% confluence in 12 well plates. At a cell density of 90%, cells were exposed to virus by adding crude extract directly to the growth media. After 16 hours of transduction, virus containing media was removed and the cells were cultured in fresh media in additional 24 hours before secretion assays. Insulin secretion was assayed in HEPES buffered saline solution (HBSS) (114 mM NaCl, 4.7 mM KCl,1.2 mM KH2PO4, 1.16 mM MgSO4, 20 mM HEPES, 2.5 mM CaCl2, 25.5 mM NaHCO3, pH 7.2 containing 0.2% bovine serum albumin (essentially fatty acid free). Cells were washed in 1 ml of HBSS, preincubated in 1.5 ml of HBSS for 2 hour prior to a 2 hour incubation in the presence of secretagogues as indicated in the figures. The insulin levels were determined by radioimmunoassay with the Coat-A-Count kit (ICN Pharmaceuticals, Costa Mesa, Calif.) and lactate output was determined with a Lactate Reagent kit (Sigma, St. Louis, Mo.) according to protocols outlined by the manufacturer.

rat INS-1 cells = conditions: glucose-responsive clones; correlated with pyruvate cycling; cited from earlier work

## O=CC[C@@H](O)[C@H](O)[C@H](O)CO [2-deoxy glucose]
β-cell
  stimulation of insulin release: fail to stimulate insulin release

## CO[C@@H]([C@H](O)[C@H](O)CO)[C@@H](O)C=O [3-O-methyl glucose]
β-cell
  stimulation of insulin release: fail to stimulate insulin release

## OCC(O)CO [glycerol]
[1]
  stimulation of insulin secretion: to the same extent
[2]
  pyruvate cycling: higher
[3]
  lactate output: higher

## CC(O)C(=O)O (stereo not shown) [lactate]
832/13 cells; 832/13 cells overexpressing LDHA
  stimulation of insulin secretion as secretagogue: as effective as the other two fuels; also recorded: as effective as glucose or pyruvate
832/13 cells; 832/13 cells without LDH overexpression
  stimulation of insulin secretion as secretagogue: poor secretagogue; also recorded: only a weak stimulator of IS
832/13 cells; 832/13 cells without LDH overexpression, listed as Lactate
  stimulation of insulin secretion as secretagogue: poor secretagogue

## O=C(O)CC(O)C(=O)O (stereo not shown) [malate]
Rat INS-1 cells
  effect on glucose-stimulated IS: potentiated

## O=C(O)Cc1ccccc1 [phenylacetic acid]
Rat INS-1 cells
  effect on glucose-stimulated IS: impaired
